Measured values: paper PMC7694948, “Mitochondrial Targeting in an Anti-Austerity Approach Involving Bioactive Metabolites Isolated from the Marine-Derived Fungus Aspergillus sp” (Marine Drugs, 2020)
Read-outs that look alike come from different tables or passages of the source.

What was measured:
[1] = tested on: oxygen consumption by PANC-1 cells; design: method as in PMID 32002808, PMID 26204821; conditions: cited from earlier work
[2] = biological target: Mitochondrial complex III (coenzyme Q cytochrome c oxidoreductase) (Bos taurus, UniProt P00125+P00157+P13272); test: MitoCheck Complex Activity Assay, complex III; type: biochemical, bovine
Protocol: (§1) The inhibitory activity of compound 1 on the mitochondrial electron transport chain (complexes I–V) was analyzed using MitoCheck Complex Activity Assay kits (Cayman Chemical) following the manufacturer’s instructions. The kits measured the enzymatic activity of each complex derived from bovine heart mitochondria in the following systems: Mitochondrial complex I (NADH oxidase/coenzyme Q reductase) activity was determined by measuring the decrease in NADH oxidation, which is reflected by a decrease in absorbance at 340 nm. Mitochondrial complex II (succinate dehydrogenase/coenzyme Q reductase) activity was assessed on the basis of the reduction rate of 2, 6-dichlorophenolindophenol (protonated by reduced coenzyme Q), which is reflected by a decrease in absorbance at 600 nm. Mitochondrial complex III (coenzyme Q cytochrome c oxidoreductase) activity was determined on the basis of the cytochrome c reduction rate, which is reflected by an increase in absorbance at 550 nm. Mitochondrial complex IV (cytochrome c oxidase) activity was determined by measuring the cytochrome c oxidation rate, which is reflected by a decrease in absorbance at 550 nm. Mitochondrial complex V (F1F0 ATP synthase) activity was determined by the NADH oxidation rate, which can be monitored at 340 nm.

[3] = tested on: human pancreatic carcinoma PANC-1 cells; test: Cytotoxicity against PANC-1 cells under glucose-deficient or general culture conditions (WST-8); type: cell-based; conditions: for IC50: Homo sapiens, 12 h treatment, WST-8; for S.I. (selectivity index): difference in IC50 values for general culture and glucose-deficient media
Protocol: PANC-1 cells were maintained in DMEM supplemented with heat-inactivated 10% FBS and kanamycin (50 µg/mL) and grown at 37 °C in a 5% CO2 atmosphere. […] The general culture medium—that is, basal medium containing 10% FBS and […] glucose (final concentration, 25 mM)—was used for comparison. The assay was performed as previously described. Briefly, PANC-1 cells (1 × 10^4 cells/100 µL in 96-well plastic plates) were preincubated in DMEM containing 10% FBS for 24 h. The medium was then changed with either the general glucose medium or glucose-deficient medium to induce adaption to nutrient starvation. After 12-h incubation, serially diluted samples were added to the media. Then, the cells were incubated for an additional 12 h at 37 °C in a 5% CO2 atmosphere. Cell proliferation was identified using WST-8. The IC50 values were determined by linear interpolation of the growth inhibition curve. We assessed the selectivity of the antiproliferative activity (S.I.) on the basis of the difference in the IC50 values for the general culture and glucose-deficient media.

[4] = biological target: T1, Mitochondrial complex II (succinate dehydrogenase/coenzyme Q reductase) (Bos taurus, UniProt P31039+P35720+Q3T189+Q95123); test: MitoCheck Complex Activity Assay, complex II; type: biochemical, bovine; conditions: for IC50: bovine heart mitochondria
T1 construct: enzymatic activity of each complex derived from bovine heart mitochondria; purchased Cayman Chemical; host or cells: bovine heart mitochondria (tissue-derived, supplied in kit)
Protocol: as §1

colon cancer cells = tested on: colon cancer cells; design: method as in PMID 26707141, PMID 20837130; conditions: general culture conditions; cited from earlier work
U937 cell lines = tested on: U937 cell lines; design: method as in PMID 20796195; conditions: U937, general culture conditions; cited from earlier work
CCRF-ADR5000 cells = tested on: CCRF-ADR5000 cells; design: method as in PMID 29707146; conditions: CCRF-ADR5000, general culture conditions; cited from earlier work
[5] = tested on: mitochondrial membrane potential of human pancreatic carcinoma PANC-1 cells; test: Mitochondrial membrane potential (JC-1 MitoMP Detection Kit); type: cell-based; conditions: PANC-1 adapted to glucose-deficient medium; 1 h treatment; JC-1 Red/Green ratio
Protocol: Figure 2 Effect of compounds 1 and 2 on the mitochondrial membrane potential of human pancreatic carcinoma PANC-1 cells. PANC-1 cells that adapted to glucose-deficient medium in the 96-well plates were treated with the indicated concentrations of the compounds for 1 h. Next, JC-1 working solution was added for measuring the mitochondrial membrane potential, and the plate was incubated for 30 min. The fluorescence intensity of the cells was measured using a Tecan Infinite M1000 microplate reader at Ex 485 nm and Em 535 nm (Green color fluorescence) and Ex 535 nm and Em 595 nm (Red color fluorescence). Differences were considered significant at * p < 0.05.
The mitochondrial membrane potential of PANC-1 cells was evaluated using the JC-1 MitoMP Detection Kit (Dojindo Laboratories) following the manufacturer’s instructions. […] The fluorescence intensity of the cells was assessed using an Infinite M1000 microplate reader (Tecan Group Ltd., Mannedorf, Switzerland) at Ex 485 nm and Em 535 nm (Green color fluorescence) and Ex 535 nm and Em 595 nm (Red color fluorescence). The ratio of the two fluorescence intensities (Red vs. Green) was then calculated.

[6] = tested on: oxygen consumption by PANC-1 cells; test: Oxygen consumption (Oxygen Consumption Rate Assay Kit); type: cell-based, human; conditions: PANC-1 in general glucose medium
Protocol: Figure 3 Effect of compounds 1 and 2 on the oxygen consumption by PANC-1 cells. The precultured PANC-1 cells in the 96-well plates were incubated in general culture medium for 12 h at 37 °C. The medium was then replaced with fresh medium; subsequently, the test compound was added, followed by addition of the phosphorescent probe to measure the oxygen consumption. The signals were measured with a Tecan Infinite M1000 microplate reader by using the time-resolved mode. Differences were considered significant at * p < 0.05. CCCP: carbonyl cyanide m-chlorophenylhydrazone.
The oxygen consumption of PANC-1 cells was analyzed using the Oxygen Consumption Rate Assay Kit (Cayman Chemical) following the manufacturer’s instructions. Briefly, precultured PANC-1 cells (8.0 × 10^4 cells) in black/clear bottom 96-well plates (Corning Incorporated) were incubated for 12 h at 37 °C in general glucose medium. […] The signals were measured using an Infinite M1000 microplate reader (Tecan Group Ltd., Zurich, Switzrland) in the time-resolved mode at Ex 380 nm and Em 650 nm for 180 min, with a 1-min time interval. Linear regression was applied after subtracting the blank, and the oxygen consumption rate was determined by the slope of each signal profile.

[7] = tested on: hepatocellular carcinoma cells; design: method as in PMID 28042511, PMID 29710489; conditions: general culture conditions; cited from earlier work
[8] = tested on: nasopharyngeal carcinoma cells; design: method as in PMID 27694907; conditions: general culture conditions; cited from earlier work
K562 cell lines = tested on: K562 cell lines; design: method as in PMID 26479318; conditions: K562, general culture conditions; cited from earlier work
[9] = tested on: glucose-6-phosphate dehydrogenase; design: method as in PMID 26479318; conditions: against breast cancer cells; cited from earlier work
SUPB15 cell lines = tested on: SUPB15 cell lines; design: method as in PMID 28810515; conditions: SUPB15, general culture conditions; cited from earlier work
[10] = biological target: T2, Mitochondrial complex IV (cytochrome c oxidase) (Bos taurus, UniProt P00396+P00415+P68530); test: MitoCheck Complex Activity Assay, complex IV; type: biochemical; conditions: bovine heart mitochondria
T2 construct: enzymatic activity of each complex derived from bovine heart mitochondria; purchased Cayman Chemical; host or cells: bovine heart mitochondria (tissue-derived, supplied in kit)
Protocol: as §1, with “The” for “The inhibitory activity of compound 1 on the mitochondrial electron transport chain (complexes I–V) was analyzed using MitoCheck Complex Activity Assay kits (Cayman Chemical) following the manufacturer’s instructions. The”

breast cancer cells = tested on: breast cancer cells; design: method as in PMID 25574462; conditions: general culture conditions; cited from earlier work
lung cancer cells = tested on: lung cancer cells; design: method as in PMID 26479318, PMID 21725807; conditions: general culture conditions; cited from earlier work
NALM6 cell lines = tested on: NALM6 cell lines; design: method as in PMID 28810515; conditions: NALM6, general culture conditions; cited from earlier work
cervical carcinoma cells = tested on: cervical carcinoma cells; design: method as in PMID 24071573; conditions: general culture conditions; cited from earlier work
[11] = biological target: Mitochondrial complex V (F1F0 ATP synthase) (Bos taurus, UniProt P00829+P00847+P19483+P32876); test: MitoCheck Complex Activity Assay, complex V; type: biochemical, bovine
Protocol: as §1

MCF-7 cells = tested on: MCF-7 cells; design: method as in PMID 18758101; conditions: 100 µg/mL (352 µM); cited from earlier work
NCI-H460 cells = tested on: NCI-H460 cells; design: method as in PMID 18758101; conditions: 100 µg/mL (352 µM); cited from earlier work
SF-268 cells = tested on: SF-268 cells; design: method as in PMID 18758101; conditions: 100 µg/mL (352 µM); cited from earlier work
P-388 cells = tested on: P-388 cells; design: method as in PMID 18758101; conditions: cited from earlier work
K-562 cells = tested on: K-562 cells; design: method as in PMID 18758101; conditions: cited from earlier work
[12] = biological target: Mitochondrial complex I (NADH oxidase/coenzyme Q reductase) (Bos taurus, UniProt P03887+P17694+P25708+P42026); test: MitoCheck Complex Activity Assay, complex I; type: biochemical, bovine
Protocol: as §1

HL-60 cells = tested on: HL-60 cells; design: method as in PMID 18758101; conditions: cited from earlier work
A-549 cells = tested on: A-549 cells; design: method as in PMID 18758101; conditions: cited from earlier work
[13] = PANC-1, glucose-deficient medium, 12 h adaptation
[14] = conversion of 10 µg/mL, read-out: IC50

T1 sequence (P31039 44-665): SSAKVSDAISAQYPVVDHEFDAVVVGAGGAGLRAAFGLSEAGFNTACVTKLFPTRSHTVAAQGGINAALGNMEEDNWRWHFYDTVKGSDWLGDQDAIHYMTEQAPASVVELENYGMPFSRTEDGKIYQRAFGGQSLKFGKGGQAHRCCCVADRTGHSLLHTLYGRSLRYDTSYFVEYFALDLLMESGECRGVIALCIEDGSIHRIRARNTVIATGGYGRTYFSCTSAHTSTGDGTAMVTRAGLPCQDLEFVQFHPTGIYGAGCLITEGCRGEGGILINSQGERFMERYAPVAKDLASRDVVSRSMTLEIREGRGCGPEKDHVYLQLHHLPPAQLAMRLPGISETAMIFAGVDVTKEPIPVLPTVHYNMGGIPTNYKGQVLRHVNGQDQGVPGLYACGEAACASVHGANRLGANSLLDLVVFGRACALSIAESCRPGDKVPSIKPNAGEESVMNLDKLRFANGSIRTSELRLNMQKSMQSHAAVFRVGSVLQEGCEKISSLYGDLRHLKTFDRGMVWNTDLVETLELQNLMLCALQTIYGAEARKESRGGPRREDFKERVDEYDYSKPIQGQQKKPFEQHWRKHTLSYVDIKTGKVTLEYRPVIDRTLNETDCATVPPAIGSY
T1 sequence (Q3T189 29-280): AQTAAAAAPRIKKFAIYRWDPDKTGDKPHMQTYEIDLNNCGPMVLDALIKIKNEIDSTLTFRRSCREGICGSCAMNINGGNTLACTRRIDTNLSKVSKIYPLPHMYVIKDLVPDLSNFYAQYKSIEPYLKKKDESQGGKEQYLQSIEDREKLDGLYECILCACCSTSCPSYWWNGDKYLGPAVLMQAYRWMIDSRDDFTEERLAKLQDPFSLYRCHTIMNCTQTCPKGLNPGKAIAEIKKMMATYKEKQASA
T1 sequence (P35720 30-169): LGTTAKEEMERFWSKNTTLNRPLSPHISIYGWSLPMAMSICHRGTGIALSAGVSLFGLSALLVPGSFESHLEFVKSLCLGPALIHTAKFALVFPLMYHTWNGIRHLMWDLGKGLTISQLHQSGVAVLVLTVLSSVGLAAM
T1 sequence (Q95123 56-158): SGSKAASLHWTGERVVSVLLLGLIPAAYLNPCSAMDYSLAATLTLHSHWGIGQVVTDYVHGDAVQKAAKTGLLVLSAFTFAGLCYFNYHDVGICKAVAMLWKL
Mitochondrial complex III (coenzyme Q cytochrome c oxidoreductase), sequence (P00125 85-325): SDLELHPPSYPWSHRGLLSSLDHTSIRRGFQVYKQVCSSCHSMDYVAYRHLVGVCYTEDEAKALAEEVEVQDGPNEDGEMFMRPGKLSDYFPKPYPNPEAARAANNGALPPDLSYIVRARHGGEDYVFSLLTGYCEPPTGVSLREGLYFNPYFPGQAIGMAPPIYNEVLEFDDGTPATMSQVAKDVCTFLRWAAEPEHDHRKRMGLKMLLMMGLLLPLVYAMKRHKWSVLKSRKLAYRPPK
Mitochondrial complex III (coenzyme Q cytochrome c oxidoreductase), sequence (P00157 whole entry): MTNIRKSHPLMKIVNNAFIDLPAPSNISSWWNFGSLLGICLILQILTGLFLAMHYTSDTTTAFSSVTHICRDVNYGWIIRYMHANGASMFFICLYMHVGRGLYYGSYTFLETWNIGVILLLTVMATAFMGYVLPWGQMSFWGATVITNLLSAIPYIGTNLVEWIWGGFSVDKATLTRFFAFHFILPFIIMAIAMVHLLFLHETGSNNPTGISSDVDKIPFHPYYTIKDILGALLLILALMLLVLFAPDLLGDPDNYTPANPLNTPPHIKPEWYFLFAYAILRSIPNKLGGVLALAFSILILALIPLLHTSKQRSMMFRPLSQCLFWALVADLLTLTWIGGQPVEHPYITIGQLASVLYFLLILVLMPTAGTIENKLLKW
Mitochondrial complex III (coenzyme Q cytochrome c oxidoreductase), sequence (P13272 whole entry): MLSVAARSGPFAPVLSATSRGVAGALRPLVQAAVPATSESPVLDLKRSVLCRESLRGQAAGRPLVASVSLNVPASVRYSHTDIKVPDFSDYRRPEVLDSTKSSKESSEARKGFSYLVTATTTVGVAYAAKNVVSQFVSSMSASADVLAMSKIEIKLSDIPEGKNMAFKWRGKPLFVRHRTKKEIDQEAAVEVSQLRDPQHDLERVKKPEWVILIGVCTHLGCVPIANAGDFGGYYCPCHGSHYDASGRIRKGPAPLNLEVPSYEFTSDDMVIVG

SMILES: CCCCCC[C@H]1C(=O)O[C@H](C)[C@H](NC(=O)c2cccc(NC=O)c2O)C(=O)O[C@@H](C)[C@@H]1OC(=O)CC(C)C [Antimycin A, reference compound]
- effect on oxygen consumption [1]: reduces oxygen consumption
- IC50 [2]: 0.03 ± 0.01 µM
- IC50 ([3]; PANC-1, general glucose medium): 288 ± 0.5 µM
- IC50 [3, 13]: 0.0003 µM
- S.I. (selectivity index) [3]: 960,000

SMILES: N#CC(C#N)=NNc1cccc(Cl)c1 [CCCP, carbonyl cyanide m-chlorophenylhydrazone]
- effect on oxygen consumption [1]: increase the oxygen consumption

SMILES: COc1cc(O)c2c(c1)C(=O)c1cc(C)cc(O)c1C2=O [Compound 1, physcion]
- IC50 [4]: 90 ± 0.11 µM
- IC50 (colon cancer cells): 10 to 50 µM
- IC50 (U937 cell lines): 27.9 µM
- IC50 (CCRF-ADR5000 cells): 74.8 µM
- effect on mitochondrial membrane potential [5]: dose-dependently decrease
- effect on oxygen consumption [6]: inhibit oxygen consumption to a similar extent as antimycin A
- IC50 [7]: 10 µM
- IC50 [8]: 20 µM
- IC50 (K562 cell lines): 12.5 µM
- inhibition of glucose-6-phosphate dehydrogenase [9]: specific inhibitor
- IC50 (SUPB15 cell lines): 5 µM
- inhibition at 100 µM [2]: 9%
- IC50 ([2]; bovine heart mitochondria): > 100 µM
- IC50 ([3]; PANC-1, general glucose medium): 1017 ± 0.05 µM
- IC50 [3, 13]: 6 ± 0.1 µM
- S.I. (selectivity index) [3]: 169.5
- IC50 [10]: 34 ± 0.3 µM
- IC50 (breast cancer cells): 45.4 µM
- IC50 (lung cancer cells): 15.1 to 35.1 µM
- IC50 (NALM6 cell lines): 5 µM
- IC50 (cervical carcinoma cells): 100 µM

SMILES: C/C=C/C=C/c1cc2c(C=O)c(O)c(CC=C(C)C)cc2o1 [Compound 2, 2-(2′,3-epoxy-1′,3′,5′-heptatrienyl)-6-hydroxy-5-(3-methyl-2-butenyl) benzaldehyde]
- inhibition at 100 µM ([4]; 100 µM): 24%
- IC50 [4]: > 100 µM
- inhibition of complex V ([11]; 100 µM): not inhibited
- IC50 ([11]; bovine heart mitochondria): > 100 µM
- cytotoxic effect (MCF-7 cells): more than 90%
- cytotoxic effect (NCI-H460 cells): more than 90%
- cytotoxic effect (SF-268 cells): more than 90%
- effect on mitochondrial membrane potential [5]: dose-dependently decrease
- IC50 (P-388 cells): higher than 10 µg/mL
- IC50 (P-388 cells; [14]): > 35.2 µM
- effect on oxygen consumption [6]: inhibit oxygen consumption to a similar extent as antimycin A
- IC50 (K-562 cells): higher than 10 µg/mL
- IC50 (K-562 cells; [14]): > 35.2 µM
- inhibition at 100 µM [2]: 6%
- IC50 ([2]; bovine heart mitochondria): > 100 µM
- IC50 ([3]; PANC-1, general glucose medium): 859 ± 1 µM
- IC50 [3, 13]: 1.7 ± 0.05 µM
- selective growth-inhibitory activity under glucose-deficient vs general culture conditions ([3]; PANC-1): 505 fold
- inhibition at 100 µM ([12]; 100 µM): 18%
- IC50 ([12]; bovine heart mitochondria): > 100 µM
- IC50 (HL-60 cells): higher than 10 µg/mL
- IC50 (HL-60 cells; [14]): > 35.2 µM
- IC50 [10]: 20 ± 0.3 µM
- IC50 (A-549 cells): higher than 10 µg/mL
- IC50 (A-549 cells; [14]): > 35.2 µM

SMILES: COC(=O)[C@@]12Oc3ccc(-c4ccc5c(c4O)C(O)C4=C(O)C[C@H](C)[C@@H](O)[C@]4(C(=O)OC)O5)c(O)c3C(=O)C1=C(O)C[C@H](C)[C@H]2O (stereo partly drawn) [secalonic acid D]
- effect on oxygen consumption [1]: increase the oxygen consumption

SMILES: O=C(CC(=O)C(F)(F)F)c1cccs1 [thenoyltrifluoroacetone, reference compound]
- IC50 [4]: 68 ± 0.01 µM
